From patent US20120208182A1, “GENETIC TEST FOR LIVER COPPER ACCUMULATION IN DOGS AND LOW COPPER PET DIET” (priority 2009, published 2012)

Columns and labels:
[1] = Pharmacokinetic study of oral zinc gluconate, plasma zinc by atomic absorption spectrometry; assay type: in vivo, Labrador Retrievers; conditions: for V_F: volume of distribution: food withheld 12 h before dosing
Experimental: Two unrelated nine-year old, healthy Labrador Retrievers (1 female and 1 male) were used in a pharmacokinetic study. Food was withheld for a 12-hour period prior to oral administration of zinc, and during the initial 6-hour testing period. Water was freely available. […] Heparinized blood samples (4 ml) were collected from the jugular vein before dosing (time 0) and 15, 30, 45, 60, 90, 120 minutes, and 4, 8, 12 and 24 hours after application of the drug. Plasma was stored at
−20° C. until analysis for zinc using atomic absorption spectrometry. […]

[2] = tested on: Labrador Retrievers; assay: Diet trial with randomized, placebo-controlled zinc application: quantitative hepatic copper by neutron activation analysis; assay type: in vivo, dog; conditions: 7.5 mg/kg PO BID versus placebo, all dogs on diet
Experimental: (§1) All dogs were fed the same diet. […] The pharmacist was the only person aware of group allocations until completion of the study. Hepatic copper concentrations and histopathology were assessed along with clinical examinations and blood-work before and after treatment for a mean of 8 months (range 5-13), and 16 months (range 12-25). Plasma zinc concentrations were measured at additional time points during treatment.
All dogs had completed their treatment with penicillamine prior to the start of this study. A medical history was obtained from all dogs and a physical examination was performed. […] Two biopsies were fixed in 10 percent neutral buffered formalin, and one biopsy was stored in a copper-free container for quantitative copper determination.
A quantitative assay for copper in liver tissue was performed by neutron activation analysis, according to a protocol described by Teske et al, using the facilities described by Bode (Bode, P. (1990) Journal of Trace and Microprobe Techniques 8: 139; Teske et al. (1992) Vet Rec 131: 30-32). Quantitative copper concentrations were measured in lyophilised liver biopsies and reported in mg/kg dry weight liver.
All dog owners were provided with the same specially manufactured diet. […] Metabolizable energy (measured according to Association of American Feed Control Officials protocol): 1650 kcal/kg as fed). […]

[3] = Diet trial: blood examinations (bile acids, ALP, ALT, plasma zinc); assay type: in vivo, dog
Experimental: as §1
All dogs had completed their treatment with penicillamine prior to the start of this study. A medical history was obtained from all dogs and a physical examination was performed. Na-citrated blood samples were taken for analysis of a coagulation profile, including prothrombin time (PT), activated partial thromboplastin time (aPTT) and fibrinogen. Heparin- and EDTA-blood was sampled for analysis of the hepatobiliary enzymes alkaline phosphatase (ALP), alanine aminotransferase (ALT), of bile acids (BA), and for measurement of the platelet count, and plasma zinc concentrations. Liver biopsies were taken according to the Menghini technique given by Rothuizen (Rothuizen J, I. T. (1998) Tijdschr Diergeneeskd 123: 246-252). At least three liver biopsies were taken from each dog. Two biopsies were fixed in 10 percent neutral buffered formalin, and one biopsy was stored in a copper-free container for quantitative copper determination.

[4] = tested on: Labrador Retrievers; assay: Diet trial: observed adverse effects; assay type: in vivo, dog; conditions: in 3 dogs of group 1; immediately after the tablets, resolved when tablets were mixed with the diet
Experimental: as §1
Owners were instructed to give the tablets mixed with small amounts of their diet 30 minutes before feeding. Neither the owner nor the clinician was informed about which treatment each dog received.

[5] = tested on: Labrador Retrievers; assay: Hepatic copper before penicillamine, after penicillamine and after diet (Example 5, FIG. 3); assay type: in vivo, dog; conditions: all dogs on diet, data not shown
Experimental: FIG. 3 illustrates the effectiveness of the diet of the invention on hepatic copper concentrations (mg/kg dry weight) in 18 Labrador Retrievers compared with the effect of penicillamine alone. The key to the x-axis is as follows: 1=pre-penicillamine, 2=post-penicillamine/pre-food, 3=post-food. […] The dotted line represents the normal level of hepatic copper for adult dogs.
During an investigation of the effect of zinc on hepatic copper concentration, hepatic copper concentration was measured in 18 pure-bred Labrador Retrievers. Half of the dogs were provided with a supplement of zinc and the other half were provided with a placebo. All of the dogs were fed the diet of Example 2. Hepatic copper concentration was measured using the method of Example 2 at 3 time points: (1) before treatment with penicillamine; (2) after treatment with penicillamine but before treatment with the diet of Example 2; and (3) after the diet treatment.

Substance: zinc gluconate
- AUC: area under the curve ([1]; Dog 1, 10 mg/kg oral): 63350 ng·h/mL
- K01: absorption rate constant ([1]; Dog 1, 10 mg/kg oral): 0.5672 h⁻¹
- K10: elimination rate constant ([1]; Dog 1, 10 mg/kg oral): 0.05373 h⁻¹
- Tmax: time of maximum concentration ([1]; Dog 1, 10 mg/kg oral): 4.59 h
- V_F: volume of distribution ([1]; Dog 1, 10 mg/kg oral): 2937.872 ml/kg bodyweight
- AUC: area under the curve ([1]; Dog 2, 5 mg/kg oral): 51990 ng·h/mL
- K01: absorption rate constant ([1]; Dog 2, 5 mg/kg oral): 1.161 h⁻¹
- K10: elimination rate constant ([1]; Dog 2, 5 mg/kg oral): 0.03789 h⁻¹
- Tmax: time of maximum concentration ([1]; Dog 2, 5 mg/kg oral): 3.048 h
- V_F: volume of distribution ([1]; Dog 2, 5 mg/kg oral): 2538.689 ml/kg bodyweight
- calculated accumulation rate R ([1]; R=1/(1−exp(−k10*24))): 1.52
- apparent oral clearance (CL/F), mean of both dogs ([1]; mean of dog 1 and dog 2): 2.116898 mL/min/kg
- effect of adjunctive zinc on hepatic copper decrease by diet [2]: did not amplify the de-coppering effect
- plasma zinc concentration, group 1 versus group 2 ([3]; at any of the three examinations (start, recheck-1, recheck-2)): No difference
- mean plasma zinc concentration ([3]; group 1, after the initial month of treatment, sampled 2-6 hours after zinc application, start 95): 165 µg/dL
- adverse effects [4]: Vomiting, anorexia, and diarrhea
- copper levels in dogs treated with zinc versus placebo [5]: no significant difference
